From patent US5652234A, “3-(7-oxo-1-aza-4-oxabicyclo[3.2.0]hept-3-yl)alanine derivative as antitumor agent” (Taiho Pharmaceutical Co., Limited, priority 1994, dated 1997)

Legend:
KB cells = test: cells; assay type: cell-based; settings: Homo sapiens, 72 h, read-out: Cytotoxicity TD50 KB
Procedure: In vitro KB cell cytoxocity assay was done by modification of the crystal violet assay (Grillis et al., Anal Biochem., 159, 109-113 (1986).
KB cells were cultivated in Eagles minimum essential medium supplemented with 10% calf serum and incubated at 37° C. in a humidified 5% CO2 atmosphere to prepare a cell stock. Cells were counted using a neubauer hemocytometer and seeded in 96 well plates at 100 μl of 3×10^4 cells/ml and cultured for one day. Test compounds were diluted and 100 .parallel.l of the solution was added in triplicate wells to give final concentration of 10, 5, 1, 0.5, 0.1, 0.05 and 0.01 μg/ml. Control wells were identical except that test compound was absent. These were cultured for three days. Then the cells were fixed with addition of 20 μl of 25% glutaraldehyde for 15 minutes, washed with water and dried. Then stained with 100 μl of 0.05% crystal violet for 15minutes, washed with water and dried. The wells are eluted with 100 μl of 0.05M NaH2 PO4 /ethanol (1:1 v/v) and read at OD540 on a multiscan spectrophotometer. Inhibition value of cell Growth was calculated based on optical density using the following equation; [formula] TD50 values were calculated from linear recression ines of the log-logit plot.

L1210 cells = test: cells; assay type: cell-based; settings: Mus musculus, L1210, 72 h, read-out: Cytotoxicity TD50 L-1210
Procedure: Vitro L1210 Cell Cytoxocity Assay
In vitro :L1210 cell cytotoxicity assay was done by the method of microculture tetrazolium assay (Alley et al., Cancer Research, 48, 589-601 (1988).
L1210 cells were cultivated in RPMI 1640 medium supplemented with 10% fetal calf serum and […] of 2-mercaptoethanol at 37° C. in humidified 5% CO2 atmosphere no prepare a cell stock. Cells were counted using neubauer hemocytometer and seed in 96 well plates at 100 μl of 0.5×10^4 cells per ml. The test compounds were diluted and 100 μl of the solution was added in triplicate wells to give the final concentration of 10, 5, 1, 0.5, 0.1, 0.05 and 0.01 μg/ml. Control wells were identical except :hat the test compound was absent. These were cultured for three days. Results were assayed using the microculture tetrazolium assay briefly. 50 μl of MTT formazoan working solution (1:5 v/v in culture medium) was added to each well and cultures were incubated at 37° C. for 4 hrs. Culture plates were centrifuged at low speed for 5 minutes. All but 10-20 μl of culture medium supernatant was removed by slow aspiration and […] and read at OD540 on a multiscan spectrophotometer. Inhibition value of cell growth was calculated based on optical density using the following equation; [formula] TD50 values were calculated from linear depression ines of the log-logit plot.

Sarcoma 180 = test: In Vivo Antitumor Activity Against Sarcoma 180; parameters: species or system male ICR mice; settings: s.c. - i.p., days 1, 5 and 9, tumor weight on day 12
Procedure: The compounds of general formula (I) were tested in vivo against Sarcoma 180 xenografted tumor to mice as illustrated herein after.
Sarcoma 180, 5×10^6 cells were inoculated by S.C. to male ICR mice (6 weeks old) on day 0. Drugs were administered on days 1,5 and 9. Mice were killed and tumor weight was measured on day 12 after transplantation. The percentage inhibition of tumor growth was calculated from the mean tumor weight of the treated group compared with that of the control group. Number of mice used in each group was between 6 to 10.

[1] = isolation to be done in the dark at low temperatures; cited from earlier work
β-lactamase = settings: natural metabolites isolated from Streptomyces culture; cited from earlier work

Structure (SMILES)	IC50 (KB cells) [µg/mL]	IC50 (L1210 cells) [µg/mL]	% Inhibition in 12 days (tumor growth, tumor weight) (Sarcoma 180; 1.56 mg/kg/day) [%]	% Inhibition in 12 days (tumor growth, tumor weight) (Sarcoma 180; 3.13 mg/kg/day) [%]	chemical stability [1]	β-lactamase inhibitory properties (β-lactamase)
O=C(N[C@@H](C[C@@H]1CN2C(=O)C[C@@H]2O1)C(=O)OC(c1ccccc1)c1ccccc1)OCc1ccccc1 (mixture of isomers) [10A, N-Benzyloxycarbonyl-3-[(3RS,5SR)-7-oxo-1-aza-4-oxabicyclo [3.2.0]hept-3-yl]-L-alanine diphenylmethyl ester]	3.17	10				
O=C(N[C@H](C[C@@H]1CN2C(=O)C[C@@H]2O1)C(=O)OC(c1ccccc1)c1ccccc1)OCc1ccccc1 (mixture of isomers) [10B, N-(benzyloxycarbonyl)-3-[(3RS,5SR)-7-oxo-1-aza-4-oxabicyclo[3.2.0]hept-3-yl]-D-alanine diphenylmethyl ester]	1.78	7.5				
N[C@@H](C[C@@H]1CN2C(=O)C[C@@H]2O1)C(=O)O (mixture of isomers) [compound 11, 3-[(3RS,5SR)-7-oxo-1-aza-4-oxabicyclo[3,2,0]hept-3-yl]-L-alanine]	0.023	0.1	71.4	79.5		
N[C@H](C[C@@H]1CN2C(=O)C[C@@H]2O1)C(=O)O (mixture of isomers) [compound 12, 3-[(3RS,5SR)-7-oxo-1-aza-4-oxabicyclo[3.2.0]hept-3-yl]-D-alanine]	0.098					
CC(C)C(N)C(=O)NC(C(=O)O)C(O)C1CN2C(=O)CC2O1 (centres unmarked) [G0069A]					chemicalyl unstable	None of the above metabolites exhibited β-lactamase inhibitory properties
